{"source": "patent US11560368B2", "about": "“Apoptosis signal-regulating kinase 1 inhibitors and methods of use thereof” (Enanta Pharmaceuticals, Inc., priority 2017, dated 2023)", "target": "ASK1 kinase (Homo sapiens (Human), UniProt Q99683)", "sequence (Q99683 whole entry)": "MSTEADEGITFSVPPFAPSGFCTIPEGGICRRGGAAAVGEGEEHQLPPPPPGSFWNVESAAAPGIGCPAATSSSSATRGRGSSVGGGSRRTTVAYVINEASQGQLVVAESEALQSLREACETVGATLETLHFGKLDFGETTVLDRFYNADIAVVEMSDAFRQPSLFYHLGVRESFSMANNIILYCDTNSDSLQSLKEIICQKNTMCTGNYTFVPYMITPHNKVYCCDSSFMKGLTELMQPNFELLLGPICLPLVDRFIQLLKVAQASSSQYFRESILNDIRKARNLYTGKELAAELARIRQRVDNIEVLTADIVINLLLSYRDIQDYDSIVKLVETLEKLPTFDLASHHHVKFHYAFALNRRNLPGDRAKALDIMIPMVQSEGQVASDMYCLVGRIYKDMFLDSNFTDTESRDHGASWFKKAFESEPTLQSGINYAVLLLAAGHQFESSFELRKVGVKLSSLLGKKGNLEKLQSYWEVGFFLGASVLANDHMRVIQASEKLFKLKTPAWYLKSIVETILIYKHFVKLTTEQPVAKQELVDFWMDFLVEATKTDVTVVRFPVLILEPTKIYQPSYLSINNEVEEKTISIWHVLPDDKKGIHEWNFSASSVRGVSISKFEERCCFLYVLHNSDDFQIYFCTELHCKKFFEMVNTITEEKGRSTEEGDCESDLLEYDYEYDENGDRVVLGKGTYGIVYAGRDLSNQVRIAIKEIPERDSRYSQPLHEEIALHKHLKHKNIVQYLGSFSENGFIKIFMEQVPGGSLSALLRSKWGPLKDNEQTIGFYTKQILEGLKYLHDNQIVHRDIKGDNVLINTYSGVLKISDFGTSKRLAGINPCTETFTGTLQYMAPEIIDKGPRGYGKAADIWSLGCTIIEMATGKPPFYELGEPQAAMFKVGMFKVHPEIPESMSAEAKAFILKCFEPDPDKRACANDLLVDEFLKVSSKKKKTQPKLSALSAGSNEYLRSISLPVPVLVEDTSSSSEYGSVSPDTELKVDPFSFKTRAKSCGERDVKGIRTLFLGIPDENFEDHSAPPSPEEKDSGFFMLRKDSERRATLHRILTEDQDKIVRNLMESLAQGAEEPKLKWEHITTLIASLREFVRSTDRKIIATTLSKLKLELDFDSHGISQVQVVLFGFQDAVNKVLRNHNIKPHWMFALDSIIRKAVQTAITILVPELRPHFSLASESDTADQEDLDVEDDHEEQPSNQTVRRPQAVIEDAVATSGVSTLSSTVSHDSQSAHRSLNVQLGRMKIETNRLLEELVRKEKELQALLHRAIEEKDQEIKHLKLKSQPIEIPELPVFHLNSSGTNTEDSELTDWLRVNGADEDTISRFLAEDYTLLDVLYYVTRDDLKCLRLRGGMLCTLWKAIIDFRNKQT", "assay": "ASK1 kinase inhibition, HTRF KinEASE-STK TR-FRET assay", "type": "biochemical", "settings": "5 nM ASK1, 1 uM STK3 peptide substrate, 100 uM ATP, 3 hours", "method": "The ability (IC50) of compounds to inhibit ASK1 kinase activity was determined by HTRF® KinEASE™ Assay System.\nASK1 was purchased from Thermofisher (Catalogue # PV4011), ATP was purchased from Sigma (Catalogue # A7699), HTRF® KinEASE™ Assay System was obtained from Cisbio (Bedford, Mass.). ½ A Area plate was purchased from Perkin Elmer (Catalogue # #6005560). HTRF® KinEASE™-STK is a generic method for measuring serine/threonine kinase activities using a time-resolved fluorescence resonance energy transfer (TR-FRET) immunoassay. The IC50 value for each compound was determined in the presence of compound (various concentration from 0 to 10 μM) and a fixed amount of ATP and peptide substrates. The test compound, 1 uM STK3 peptide substrate, and 5 nM of ASK1 kinase are incubated with kinase reaction buffer containing 50 mM HEPES pH 7.5, 0.01% BRU-35, 10 mM MgCl2, and 1 mM EGTA for 30 minutes. 100 uM ATP is added to start kinase reaction and incubated for 3 hours. The STK3-antibody labeled with Eu^3+-Cryptate and 125 nM streptavidin-XL665 are mixed in a single addition with stop reagents provided by the Cisbio kit used to stop the kinase reaction. Fluorescence is detected using an Envision Multilabeled 2014 reader from PerkinElmer. The Fluorescence is measured at 615 nm (Cryptate) and 665 nm (XL665) and a ratio of 665 nm/615 nm is calculated for each well. […] IC50 was determined by XLfit 5.3. […]"}
{"compound": "Cc1cc(F)c(C(=O)Nc2cccc(-c3nnnn3C(C)C)n2)cc1-n1cnc(C(F)(F)F)c1", "note": "[Example 2b]", "values": [{"measurement": "IC50", "result": "100 to 1000", "unit": "nM"}]}
